ChEMBL document CHEMBL1126033, “C-terminal modifications of nonpeptide renin inhibitors: improved oral bioavailability via modification of physicochemical properties” (J Med Chem, 1992)

How the values were obtained:
[1] = molecular target: T1, Renin (Homo sapiens, UniProt P00797); test: In vitro activity against human renin (pH 6.0)
T1 sequence (P00797 whole entry): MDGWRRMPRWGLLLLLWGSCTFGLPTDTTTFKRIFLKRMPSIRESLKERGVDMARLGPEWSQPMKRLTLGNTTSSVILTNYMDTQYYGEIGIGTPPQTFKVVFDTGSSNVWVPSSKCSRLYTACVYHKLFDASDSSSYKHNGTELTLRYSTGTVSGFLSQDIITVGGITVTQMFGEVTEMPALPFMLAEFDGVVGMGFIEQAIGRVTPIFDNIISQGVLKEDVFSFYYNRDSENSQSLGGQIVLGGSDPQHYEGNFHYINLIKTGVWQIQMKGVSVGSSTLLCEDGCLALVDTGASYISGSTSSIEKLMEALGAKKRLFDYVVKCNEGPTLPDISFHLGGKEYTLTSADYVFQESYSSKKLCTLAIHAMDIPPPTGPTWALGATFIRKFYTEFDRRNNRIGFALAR

[2] = molecular target: T1, Renin; format: cell-free, Plasma
[3] = Average peak plasma drug concentration after id dose of 10 mg/kg in ferrets(Plasma samples collected from portal blood).; details: ferret
[4] = tested on: Mustela putorius furo; test: Average area under curve value dosed at 0.3 mg/kg, iv in ferrets.; details: ferret, in vivo
[5] = Partition coefficient (logD6.5); details: octanol/water, pH 6.5
[6] = tested on: Mustela putorius furo; test: Average area under curve value dosed at 10 mg/kg, id in ferrets.; details: ferret, in vivo, other
[7] = Partition coefficient (logD7.4); details: octanol/water, pH 7.4
[8] = Average peak plasma drug concentration after iv dose of 0.3 mg/kg in ferrets.; details: ferret
[9] = Bioavailability in ferret; details: in vivo
[10] = Average peak plasma drug concentration after id dose of 10 mg/kg in ferrets(Plasma samples collected from arterial blood).; details: ferret

SMILES: CC(C)[C@H](C[C@H](O)[C@H](CC1CCCCC1)NC(=O)[C@H](Cc1c[nH]cn1)NC(=O)[C@H](Cc1ccccc1)NC(=O)OC(C)(C)C)NC(=O)OCc1ccccc1
- IC50 [1]: 11 nM

SMILES: CCCC[C@H](N[C@@H](Cc1ccccc1)C(=O)N1CCC(OCOC)CC1)C(=O)N[C@@H](CC1CCCCC1)[C@@H](O)C[C@H](C(=O)NCCCn1ccnc1)C(C)C
- IC50 [2]: 7.6 nM
- IC50 [1]: 2 nM

SMILES: CCCOC(=O)N[C@@H](C[C@H](O)[C@H](CC1CCCCC1)NC(=O)[C@H](Cc1cnc[nH]1)NC(=O)[C@H](Cc1ccccc1)NC(=O)OC(C)(C)C)C(C)C
- IC50 [2]: 16 nM
- IC50 [1]: 1.7 nM

SMILES: CC(C)[C@H](C[C@H](O)[C@H](CC1CCCCC1)NC(=O)[C@H](Cc1cnc[nH]1)NC(=O)[C@H](Cc1ccccc1)NC(=O)OC(C)(C)C)NC(=O)OCCCN(C)C
- IC50 [2]: 17 nM
- IC50 [1]: 2.8 nM

SMILES: CCCC[C@H](O[C@@H](Cc1ccccc1)C(=O)N1CCC(OCOC)CC1)C(=O)N[C@@H](CC1CCCCC1)[C@@H](O)C[C@H](N)C(C)C
- IC50 [1]: 110 nM

SMILES: CCCC[C@H](O[C@@H](Cc1ccccc1)C(=O)N1CCC(OCOC)CC1)C(=O)N[C@@H](CC1CCCCC1)[C@@H](O)C[C@H](NC(=O)OCc1ccccc1)C(C)C
- IC50 [2]: 83 nM
- IC50 [1]: 2.2 nM

SMILES: CCCC[C@H](O[C@@H](Cc1ccccc1)C(=O)N1CCC(OCOC)CC1)C(=O)N[C@@H](CC1CCCCC1)[C@@H](O)C[C@H](NC(=O)OCCN(C)C)C(C)C
- Cmax ([3]; plasma (from portal blood)): 1540 ng/mL
- Average AUC [4]: 13.9 µg·min/mL
- IC50 [2]: 8.3 nM
- logD [5]: 3.6
- Average AUC [6]: 167 µg·min/mL
- logD [7]: > 4
- Cmax ([8]; plasma): 1010 ng/mL
- bioavailability [9]: 36%
- Cmax ([10]; plasma (from arterial blood)): 1190 ng/mL

SMILES: CCCC[C@H](O[C@@H](Cc1ccccc1)C(=O)N1CCC(OCOC)CC1)C(=O)N[C@@H](CC1CCCCC1)[C@@H](O)C[C@H](C(=O)NCCC[N+]1([O-])CCOCC1)C(C)C
- IC50 [2]: 3.5 nM
- IC50 [1]: 1.3 nM

SMILES: CCCC[C@H](O[C@@H](Cc1ccccc1)C(=O)N1CCC(OCOC)CC1)C(=O)N[C@@H](CC1CCCCC1)[C@@H](O)C[C@H](C(=O)N(C)CCCN(C)C)C(C)C
- IC50 [2]: 270 nM
- logD [5]: 2.5
- logD [7]: 3.7
- IC50 [1]: 57 nM

SMILES: CC(C)[C@H](C[C@H](O)[C@H](CC1CCCCC1)NC(=O)[C@H](Cc1c[nH]cn1)NC(=O)[C@H](Cc1ccccc1)NC(=O)OC(C)(C)C)NS(=O)(=O)C(C)C
- IC50 [1]: 67 nM

SMILES: CCCC[C@H](O[C@@H](Cc1ccccc1)C(=O)N1CCC(OCOC)CC1)C(=O)N[C@@H](CC1CCCCC1)[C@@H](O)C[C@H](C(=O)NCCN(C)C)C(C)C
- IC50 [2]: 5.7 nM
- logD [5]: 3.3
- logD [7]: 4.3
- IC50 [1]: 2.9 nM

SMILES: CC(C)[C@H](C[C@H](O)[C@H](CC1CCCCC1)NC(=O)[C@H](Cc1c[nH]cn1)NC(=O)[C@H](Cc1ccccc1)NC(=O)OC(C)(C)C)NS(C)(=O)=O
- IC50 [1]: 28 nM

SMILES: CC(C)[C@H](C[C@H](O)[C@H](CC1CCCCC1)NC(=O)[C@H](Cc1c[nH]cn1)NC(=O)[C@H](Cc1ccccc1)NC(=O)OC(C)(C)C)NC(=O)OCCN(C)C
- IC50 [2]: 12 nM
- IC50 [1]: 2.3 nM

SMILES: CC(C)[C@H](C[C@H](O)[C@H](CC1CCCCC1)NC(=O)[C@H](Cc1cnc[nH]1)NC(=O)[C@H](Cc1ccccc1)NC(=O)OC(C)(C)C)NC(=O)OCCN1CCOCC1
- IC50 [2]: 4.7 nM
- IC50 [1]: 1.3 nM

SMILES: CCCCC(=O)N[C@@H](C[C@H](O)[C@H](CC1CCCCC1)NC(=O)[C@H](Cc1c[nH]cn1)NC(=O)[C@H](Cc1ccccc1)NC(=O)OC(C)(C)C)C(C)C
- IC50 [2]: 200 nM
- IC50 [1]: 6 nM

SMILES: CCCC[C@H](O[C@@H](Cc1ccccc1)C(=O)N1CCC(OCOC)CC1)C(=O)N[C@@H](CC1CCCCC1)[C@@H](O)C[C@H](C(=O)N1CCCN(C)CC1)C(C)C
- IC50 [2]: 79 nM
- logD [5]: 3.7
- IC50 [1]: 17 nM

SMILES: CCCC[C@H](N[C@@H](Cc1ccccc1)C(=O)N1CCC(OCOC)CC1)C(=O)N[C@@H](CC1CCCCC1)[C@@H](O)C[C@H](NC(=O)OCCN1CCOCC1)C(C)C
- IC50 [2]: 9.5 nM
- logD [5]: 3.9
- logD [7]: 4.3
- IC50 [1]: 1.8 nM

SMILES: CCCCC(=O)N[C@@H](C[C@H](O)[C@H](CC1CCCCC1)NC(=O)[C@H](CCCC)O[C@@H](Cc1ccccc1)C(=O)N1CCC(OCOC)CC1)C(C)C
- IC50 [2]: 53 nM

SMILES: CCCC[C@H](N[C@@H](Cc1ccccc1)C(=O)N1CCC(OCOC)CC1)C(=O)N[C@@H](CC1CCCCC1)[C@@H](O)C[C@H](C(=O)NCCCN(C)C)C(C)C
- IC50 [2]: 6.1 nM
- logD [5]: 2.2
- logD [7]: 2.8
- IC50 [1]: 2.1 nM

SMILES: CC(C)[C@H](C[C@H](O)[C@H](CC1CCCCC1)NC(=O)[C@H](Cc1c[nH]cn1)NC(=O)[C@H](Cc1ccccc1)NC(=O)OC(C)(C)C)NC(=O)OCCc1ccccn1
- IC50 [2]: 17 nM
- IC50 [1]: 1.3 nM

SMILES: CCCC[C@H](O[C@@H](Cc1ccccc1)C(=O)N1CCC(OCOC)CC1)C(=O)N[C@@H](CC1CCCCC1)[C@@H](O)C[C@H](NC(=O)OCCN1CCCC1)C(C)C
- IC50 [2]: 13 nM
- IC50 [1]: 2.5 nM

SMILES: CCCC[C@H](O[C@@H](Cc1ccccc1)C(=O)N1CCC(OCOC)CC1)C(=O)N[C@@H](CC1CCCCC1)[C@@H](O)C[C@H](NC(=O)OCCc1ccccn1)C(C)C
- IC50 [2]: 40 nM
- logD [5]: 2.7
- logD [7]: 3.4
- IC50 [1]: 0.9 nM

SMILES: CCCC[C@H](O[C@@H](Cc1ccccc1)C(=O)N1CCC(OCOC)CC1)C(=O)N[C@@H](CC1CCCCC1)[C@@H](O)C[C@H](C(=O)NCCc1ccccn1)C(C)C
- IC50 [2]: 5.1 nM
- logD [5]: > 5
- logD [7]: > 5
- IC50 [1]: 1 nM

SMILES: CCCC[C@H](O[C@@H](Cc1ccccc1)C(=O)N1CCC(OCOC)CC1)C(=O)N[C@@H](CC1CCCCC1)[C@@H](O)C[C@H](NS(C)(=O)=O)C(C)C
- IC50 [2]: 61 nM
- IC50 [1]: 4.3 nM

SMILES: CCCC[C@H](O[C@@H](Cc1ccccc1)C(=O)N1CCC(OCOC)CC1)C(=O)N[C@@H](CC1CCCCC1)[C@@H](O)C[C@H](C(=O)NCCCN(C)C)C(C)C
- Cmax ([3]; plasma (from portal blood)): 4990 ng/mL
- Average AUC [4]: 34.4 µg·min/mL
- IC50 [2]: 5.9 nM
- logD [5]: 2.3
- Average AUC [6]: 580 µg·min/mL
- logD [7]: 3.1
- Cmax ([8]; plasma): 2990 ng/mL
- bioavailability [9]: 50%
- Cmax ([10]; plasma (from arterial blood)): 5050 ng/mL

SMILES: CCCC[C@H](O[C@@H](Cc1ccccc1)C(=O)N1CCC(OCOC)CC1)C(=O)N[C@@H](CC1CCCCC1)[C@@H](O)C[C@H](C(=O)NCCN1CCOCC1)C(C)C
- Cmax ([3]; plasma (from portal blood)): 4350 ng/mL
- Average AUC [4]: 28.3 µg·min/mL
- IC50 [2]: 3.7 nM
- logD [5]: > 5
- Average AUC [6]: 425 µg·min/mL
- logD [7]: > 5
- Cmax ([8]; plasma): 1320 ng/mL
- bioavailability [9]: 45%
- Cmax ([10]; plasma (from arterial blood)): 2770 ng/mL
- IC50 [1]: 1 nM

SMILES: CCCC[C@H](O[C@@H](Cc1ccccc1)C(=O)N1CCC(OCOC)CC1)C(=O)N[C@@H](CC1CCCCC1)[C@@H](O)C[C@H](NC(=O)OCCCN(C)C)C(C)C
- IC50 [2]: 12 nM
- logD [5]: 2.9
- logD [7]: 3.8
- IC50 [1]: 2.4 nM

SMILES: CCCC[C@H](O[C@@H](Cc1ccccc1)C(=O)N1CCC(OCOC)CC1)C(=O)N[C@@H](CC1CCCCC1)[C@@H](O)C[C@H](NC(=O)OCCC)C(C)C
- IC50 [2]: 14 nM
- IC50 [1]: 1.5 nM

SMILES: CC(C)[C@H](C[C@H](O)[C@H](CC1CCCCC1)NC(=O)[C@H](Cc1c[nH]cn1)NC(=O)[C@H](Cc1ccccc1)NC(=O)OC(C)(C)C)NC(=O)OCCN1CCCC1
- IC50 [2]: 28 nM
- IC50 [1]: 2.7 nM

SMILES: CCCC[C@H](O[C@@H](Cc1ccccc1)C(=O)N1CCC(OCOC)CC1)C(=O)N[C@@H](CC1CCCCC1)[C@@H](O)C[C@H](C(=O)N(C)CCN(C)C)C(C)C
- IC50 [2]: 290 nM
- logD [5]: 3.3
- logD [7]: > 5
- IC50 [1]: 30 nM

SMILES: CCCC[C@H](O[C@@H](Cc1ccccc1)C(=O)N1CCC(OCOC)CC1)C(=O)N[C@@H](CC1CCCCC1)[C@@H](O)C[C@H](NC(=O)NCCC)C(C)C
- IC50 [2]: 16 nM
- IC50 [1]: 2.4 nM

SMILES: CCCC[C@H](O[C@@H](Cc1ccccc1)C(=O)N1CCC(OCOC)CC1)C(=O)N[C@@H](CC1CCCCC1)[C@@H](O)C[C@H](NC(=O)OCCC(C)C)C(C)C
- IC50 [2]: 56 nM
- IC50 [1]: 5 nM

SMILES: CCCC[C@H](N[C@@H](Cc1ccccc1)C(=O)N1CCC(OCOC)CC1)C(=O)N[C@@H](CC1CCCCC1)[C@@H](O)C[C@H](C(=O)NCCCN1CCOCC1)C(C)C
- Cmax ([3]; in vivo): 4350 ng/mL
- Average AUC [4]: 40.9 µg·min/mL
- logD [5]: 3.9
- Average AUC [6]: 462 µg·min/mL
- logD [7]: 4.5
- Cmax ([8]; in vivo): 1310 ng/mL
- bioavailability [9]: 34%
- Cmax ([10]; in vivo): 3490 ng/mL

SMILES: CCCNC(=O)N[C@@H](C[C@H](O)[C@H](CC1CCCCC1)NC(=O)[C@H](Cc1c[nH]cn1)NC(=O)[C@H](Cc1ccccc1)NC(=O)OC(C)(C)C)C(C)C
- IC50 [2]: 83 nM
- IC50 [1]: 2.7 nM

SMILES: CCCC[C@H](O[C@@H](Cc1ccccc1)C(=O)N1CCC(OCOC)CC1)C(=O)N[C@@H](CC1CCCCC1)[C@@H](O)C[C@H](C(=O)NCCC[N+](C)(C)[O-])C(C)C
- IC50 [2]: 5 nM

SMILES: CCCCNC(=O)[C@@H](C[C@H](O)[C@H](CC1CCCCC1)NC(=O)[C@H](CCCC)N[C@@H](Cc1ccccc1)C(=O)N1CCC(OCOC)CC1)C(C)C
- Cmax ([3]; plasma (from portal blood)): 3220 ng/mL
- Average AUC [4]: 40.4 µg·min/mL
- logD [5]: > 4.5
- Average AUC [6]: 212 µg·min/mL
- logD [7]: > 4.5
- Cmax ([8]; plasma): 2230 ng/mL
- bioavailability [9]: 16%
- Cmax ([10]; plasma (from arterial blood)): 1540 ng/mL
- IC50 [1]: 1.8 nM
